Data on two compounds can be found in patent US20110020849A1, “BIOMARKERS FOR DIAGNOSTIC AND THERAPEUTIC METHODS” (Wayne State University, priority 2007, published 2011).

The subject of series [1] is RBCs. As to the kind of experiment: Cell lysis control: RBC solutions measured under non-flow conditions with a luminometer. The following applies: 200 μL RBC solution and 200 μL luciferin/luciferase solution. Format: cell-based. The procedure: To ensure that the resulting increase in ATP release was due to C-peptide interacting with the RBCs and not cell lyses, the RBC solutions were measured under non-flow conditions using a luminometer with 200 μL of the RBC solution and 200 μL of the luciferin/luciferase solution. […] To ensure that lysis was not occurring in the tubing, a solution of 0.01 M glybenclamide was prepared by adding 49 mg of glybenclamide (Sigma) to 2 mL of a 0.1 M solution of sodium hydroxide. To this, 7.94 mL of a dextrose solution (1 g dextrose in 20 mL of purified water) was added. The mixture was heated carefully to 52° C. until all of the glybenclamide was dissolved. Once the solute was completely dissolved, 1 mL of this solution was added to 9 mL of PSS, resulting in a solution with a concentration 0.001 M. From this diluted solution, 2.5 mL were added to 2.5 mL of 7% hematocrit RBC solution, resulting in a 3.5% hematocrit solution of RBCs. This solution was allowed to incubate for 15 minutes. As a comparison, 2.5 mL of wash buffer without glybenclamide was added to 2.5 mL of 7% hematocrit RBCs. After 15 minutes, the RBC solutions were assayed.

The test system of another series is diabetic human RBCs. As to the kind of experiment: ATP release from RBCs of patients with type II diabetes. The following applies: n=7; for ATP release: diabetic human RBCs, ±SEM, FIG. 2. Format: cell-based. The procedure:
(§1) Preparation of RBCs. Rabbits (New Zealand whites, males, 2.0-2.5 kg) were anesthetized with ketamine ([…], i.m.) and xylazine (1 mg/kg, i.m.) followed by pentobarbital sodium (15 mg/kg i.v.). A cannula was placed in the trachea and the animals were ventilated with room air. A catheter was placed into a carotid artery for administration of heparin and for phlebotomy. After heparin (500 units, i.v.), the animals were exsanguinated. Human blood was obtained by venipuncture without the use of a tourniquet (antecubital fossa) and collected into a heparinized syringe. Blood was centrifuged at 500×g at 4° C. for 10 min. The plasma and buffy coat were discarded. The RBCs were resuspended and washed three times in a physiological salt solution [PSS, containing in mM: 4.7 KCl, 2.0 CaCl2, 140.5 NaCl […], 21.0 tris(hydroxymethyl)aminomethane, 11.1 dextrose with 5% bovine serum albumin (final pH 7.4)]. Cells were prepared on the day of use and experiments were finished within 8 hours of removal from the animal or human subjects. All procedures were approved by the Animal Investigation Committee or the Human Investigation Committee at Wayne State University.
Measurement of ATP. Human C-peptide (American Peptide Co., Sunnyvale, Calif.), 0.25 mg (MW=3020 g/mol), was dissolved in […] of purified water (18.2 megaohm) to yield a concentration of 83 μM. Next, an appropriate volume of this C-peptide solution was added to 10 mL of a 7% solution of RBCs to create a solution containing the C-peptide at concentrations in the 1-5 nM range. […] The resulting chemluminescence reaction flowed through a final potion of fused-silica microbore tubing that was placed over a photomultiplier tube, where the emission was detected. The resultant current was measured as a potential by a data acquisition board operated by a program written with the LabView software package (National Instruments, Austin, Tex.). […]

In series [2] the test system is RBCs. Kind of series: Loss of ATP-release bioactivity of C-peptide preparation in water (repeats of Experiments 1 and 2). Format: cell-based.
Series [3] is described as follows: Electrospray ionization mass spectrometry of C-peptide and metal adducts in aqueous solution. Conditions: ESI-MS.
Procedure: Mass Spectrometric Analysis of Metal-Peptide Binding.
Specifically, the mass spectrum shown in FIG. 3a is that of peptide prepared in water and analyzed within 0.5 h of preparation. In 3a, the [M+3H]^3+ peak is present as are other forms of the peptide with sodium atoms, potassium atoms, or a combination thereof.
In another series the test system is rabbit RBCs. Kind of series: Deformation-induced ATP release from rabbit RBCs pumped through microbore tubing (luciferin/luciferase chemiluminescence). Format: cell-based. The procedure: as §1
Measurement of ATP. Human C-peptide (American Peptide Co., Sunnyvale, Calif.), 0.25 mg (MW=3020 g/mol), was dissolved in […] of purified water (18.2 megaohm) to yield a concentration of 83 μM. […] The resulting chemluminescence reaction flowed through a final potion of fused-silica microbore tubing that was placed over a photomultiplier tube, where the emission was detected. The resultant current was measured as a potential by a data acquisition board operated by a program written with the LabView software package (National Instruments, Austin, Tex.).
Introduction. […] Upon deformation in the tubing, the RBCs release ATP that is measured using a well-established chemiluminescence assay for ATP. The concentrations of RBC-derived ATP are measured in the presence and absence of synthetic C-peptide.
C-Peptide-Induced Release of ATP. RBCs obtained from rabbits are pumped through microbore tubing having an inside diameter of 50 μm and the resultant ATP released by the cells upon deformation in the tubing is measured. […] Another aliquot from the same RBC sample is incubated in 1 nM C-peptide and the resultant ATP release measured every 2 h for a period up to 6 h. […] As shown, the ATP release (determined by a chemiluminescence assay) from those cells incubated in the c-peptide increased approximately 2.9 times over a period of […]. […] If cell lysis were occurring, the glybenclamide would have no affect on the measured ATP as it would be present in extracellular form whether or not glybenclamide was introduced to the RBCs. […]

For the compound C-peptide, the “luminescence signal under non-flow conditions (cell lysis check)” value with RBCs [1] is given as “No detectable signals were obtained”. Moreover, in the series on diabetic human RBCs (RBCs of patients with type II diabetes, compared with healthy non-diabetic controls), the “restoration of ATP release levels” value was “restore these release levels to a value that is statistically equivalent to that of healthy, non-diabetic control patients”. The ATP release with diabetic human RBCs (after 6 hours of incubation with freshly prepared C-peptide preparation) was 256.1 ± 38.7 nM; in the series on diabetic human RBCs (at 0 hours, freshly prepared C-peptide preparation), 63.6 ± 12.6 nM. Moreover, the “time to loss of bioactivity after preparation in water” value in the series with RBCs [2] lay in the range of 24 to 36 h. In addition, in series [3], the “time in solution without degradation or cleavage” value was more than 30 days. In addition, the “ability to induce ATP release from deformed RBCs” value with rabbit RBCs (C-peptide solution kept at 4° C. for >30 days) is “no longer has the ability to induce ATP release from deformed RBCs”. For the same compound, in the series with rabbit RBCs (rabbit RBCs, 1 nM C-peptide, over a period of 8 h, normalized values, FIG. 1), the “increase in ATP release” value is “approximately 2.9 times”. Further, the “increase in ATP release versus control (buffer without C-peptide)” value with rabbit RBCs (rabbit RBCs, 1 nM C-peptide, over the 6 h period) is reported as “nearly three times that of the RBCs incubated with a control”.
Turning to `COc1ccc(Cl)cc1C(=O)NCCc1ccc(S(=O)(=O)NC(=O)NC2CCCCC2)cc1` [glybenclamide], in the series on rabbit RBCs (RBCs incubated in glybenclamide), the “effect on the C-peptide-induced increase in ATP release” value is given as “can be inhibited”.
